The values that follow come from PMC6125784 (Cell chemical biology, 2018).

The assay concerns the target T1, CobL (Rhodobacter capsulatus, UniProt D5AV04).
T1 sequence (D5AV04 1-396): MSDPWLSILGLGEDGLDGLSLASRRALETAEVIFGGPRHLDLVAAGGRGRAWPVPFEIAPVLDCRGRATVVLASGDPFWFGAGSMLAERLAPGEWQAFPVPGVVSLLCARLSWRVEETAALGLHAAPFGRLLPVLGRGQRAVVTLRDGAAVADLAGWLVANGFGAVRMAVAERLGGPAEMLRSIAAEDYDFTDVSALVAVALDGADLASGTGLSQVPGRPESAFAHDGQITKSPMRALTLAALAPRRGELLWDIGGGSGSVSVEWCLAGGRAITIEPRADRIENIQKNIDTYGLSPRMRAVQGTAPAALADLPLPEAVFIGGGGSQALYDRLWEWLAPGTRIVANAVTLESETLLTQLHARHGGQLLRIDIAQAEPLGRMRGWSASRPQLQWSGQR
Put plainly: C5 alkylation coupled to CobH, UV-visible and HPLC-MS. The class given is biochemical. As to conditions: CobH 30 uM, pH 8.0, 28°C.

On to `C=CC[S+](CC[C@H](N)C(=O)O)C[C@H]1O[C@@H](n2cnc3c(N)ncnc32)[C@H](O)[C@@H]1O` (some centres unmarked) [allyl-SAM], for which the “C5 alkylation coupled to CobH, UV-visible and HPLC-MS” value (precorrin-7 60 uM) was “When precorrin-7 was incubated with CobL, CobH, and allyl-SAM the color”.
`CC1=C(CCC(=O)O)C2=N[C@@]1(C)CC1=C(CCC(=O)O)[C@](C)(CC(=O)O)C(=N1)/C=C1\N[C@@](C)([C@@H]3N=C(C2C)[C@](C)(CCC(=O)O)[C@H]3CC(=O)O)[C@@](C)(CC(=O)O)[C@@H]1CCC(=O)O` (some centres unmarked) [precorrin-7]: for the setting “allyl-SAM 170 uM”, the “C5 alkylation coupled to CobH, UV-visible and HPLC-MS” value is “When precorrin-7 was incubated with CobL, CobH, and allyl-SAM the color”.
